Where no end group is shown, it is not given here.
Experiments:
[1] = target: T1, VEGF/Aβ interaction (VEGF165, biotinylated Aβ) (Homo sapiens, UniProt P15692); test: Inhibition of biotinylated Aβ binding to coated VEGF165; conditions: VEGF165 50 ng/well; biotinylated Aβ 100 ng/ml; increasing concentration of test compound
T1 sequence (P15692 27-191 isoform P15692-4 limits assumed): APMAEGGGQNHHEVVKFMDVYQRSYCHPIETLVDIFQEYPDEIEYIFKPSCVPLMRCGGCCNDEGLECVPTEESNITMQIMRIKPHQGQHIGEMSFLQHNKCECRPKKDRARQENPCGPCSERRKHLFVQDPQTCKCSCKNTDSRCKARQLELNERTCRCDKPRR
Protocol: Biotinylated Aβ (100 ng/ml) was added to each well in the presence of increasing concentration of test compound. After 2 hours, each well was rinsed several times with 0.05% Tween in PBS. The bound biotinylated Aβ was determined with steptavidin conjugated with horse radish peroxidase.

[2] = target: T2, Aβ (Homo sapiens, UniProt P05067); test: Inhibition of the aggregation of Aβ by Aβ-VEGF binding inhibitors; format: biochemical
T2 construct: Aβ (Aβ) is the major component of senile plaques and is derived from the amyloid precursor protein by proteolytic cleavage

[3] = target: T2, Aβ; test: Binding of growth factors to Aβ; conditions: among NGF, bFGF, PDGF, VEGF and midkine
[4] = tested on: endothelial cells; test: Effect of Aβ peptides on binding of VEGF with the receptors on endothelial cells; format: cell-based; conditions: 1 μM; data not shown
[5] = tested on: endothelial cells; test: Effect of Aβ peptides on proliferation of endothelial cells induced by VEGF; format: cell-based; conditions: 1 μM; data not shown
[6] = tested on: MDA-MB-231 tumor cells; test: Effect of Aβ peptides on binding of VEGF to tumor cells that express neuropilin-1; format: cell-based; conditions: data not shown
[7] = target: T2, Aβ; test: Determination of Aβ binding region in VEGF, immobilized GST-fusion proteins; conditions: GST-fusion proteins 200 nM immobilized; 200 nM Aβ
Protocol: The purified proteins were analyzed with 12% SDS-polyacrylmide gel electrophoresis. […] After blocking nonspecific binding sites with 3% BSA/PBS, 200 nM of Aβ was added to each well and allowed to bind to immobilized proteins. Unbound Aβ was removed and the bound Aβ was determined with rabbit anti-Aβ antibody followed by anti-rabbit antibody conjugated with horse radish peroxidase.

[8] = tested on: PC12 cells; test: MTT assay, cytotoxicity of Aβ; format: cell-based; parameters: dose or concentration left out as unconfirmed; conditions: Aβ1-42 incubated with VEGF165 or GST-HBD at 37° C. for 24 hours; PC12 cells 24 hours
Protocol: The mixture was added to PC12 cells (2×10^4, cells/well, kindly provided by Dr. Pann-Ghill Suh), and then left for reaction at 37° C. for 24 hours. Then, 1/10 volume of 5 mg/ml MTT solution was added to the resulted mixture, and reacted for 2 hours. The obtained cells were lysed by 25% dimethylformamide/10% SDS. Thereafter, the absorbance of the lysate was measured at 570 nm, and then, compared with that of control of non-treated PC12 cells, to determine the reduction of MTT, and thereby determining the viability of the cells.

[9] = tested on: PC12 cells; test: Ethidium fluorescence assay, cytotoxicity of Aβ; format: cell-based; conditions: 5 μM Aβ1-42 incubated with VEGF or GST-HBD at 37° C. for 24 hours; PC12 cells 24 hours
Protocol: The mixture was added to PC12 cells (2×10^4, cells/well, kindly provided by Dr. Pann-Ghill Suh), and then left for reaction at 37° C. for 24 hours. Then, equal volume of 4 μM ethidium homodimer-1 was added to the resulted mixture, and reacted for 30 minutes. Thereafter, the fluorescence of the mixture was measured at Ex=530 nm and Em=645 nm, and then, compared with that of control of non-treated PC12 cells, to determine the cytotoxicity of Aβ.

[10] = target: T3, Aβ1-42 (Homo sapiens, UniProt P05067); test: Thioflavin T assay of Aβ aggregation; format: biochemical; conditions: 24 hours
T3 construct: Aβ1-40, Aβ1-42, and Aβ40-1 (BACHEM, Bubendorf, Switzerland) were immobilized on a CM5 sensor chip; purchased BACHEM
Protocol: 10 μM of thioflavin T was added to the mixture and sufficiently mixed. Then, the fluorescence of the mixture was measured at Ex=444 nm and Em=485 nm, and then, compared with that of control of Aβ incubated alone, to determine the affection on aggregation of Aβ.
50 μM Aβ was incubated at 37° C. for 24 hours together with triamterene of 0 μM, 4 μM, 20 μM or 100 μM, respectively, to generate aggregation of Aβ. Then, the degree of aggregation was determined by the thioflavin T assay as illustrated in Example 11.

[11] = tested on: PC12 cells; test: DCF fluorescence, generation of reactive oxygen species by Aβ; format: cell-based; conditions: PC12 cells 3 hours
Protocol: 5 μM VEGF165 or 5 μM GST-HBD and 5 μM Aβ1-42 were mixed and incubated at 37° C. for 24 hours. The mixture was added to PC12 cells (6×10^4, cells/well, kindly provided by Dr. Pann-Ghill Suh), and then left for reaction at 37° C. for 3 hours. Then, 100 μM of DCF solution was added to the resulted mixture, reacted for 30 minutes, and then washed with PBS (phosphate-buffered saline). The obtained cells were observed through a fluorescent microscope, and DCF fluorescence was measured, to calculate the level of generation of the reactive oxygen species.

[12] = target: T4, immobilized VEGF165 (Homo sapiens, UniProt P15692); test: Determination of VEGF binding region in Aβ, competition by Aβ fragments; conditions: Aβ1-42 50 nM; 30 μM or 50 μM Aβ fragment
T4 sequence (P15692 27-191 isoform P15692-4): T1 sequence (P15692 27-191 isoform P15692-4 limits assumed)
Protocol: After removing unbound Aβ, the bound Aβ was determined by binding of rabbit anti-Aβ antibody followed by anti-rabbit antibody conjugated with horse radish peroxidase. […] The bound biotinylated Aβ was determined with streptavidin conjugated with horse radish peroxidase.

[13] = target: T5, VEGF/Aβ interaction (GST-heparin-binding domain, biotinylated Aβ1-42) (Homo sapiens, UniProt P15692); test: Heparin inhibition of biotinylated Aβ1-42 binding to immobilized GST-heparin-binding domain; conditions: GST-heparin-binding domain 100 nM immobilized; biotinylated Aβ1-42 50 nM
T5 construct: made in house
T5 sequence (P15692 137-191 isoform P15692-4): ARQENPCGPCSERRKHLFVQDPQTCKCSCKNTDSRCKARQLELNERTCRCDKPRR
Protocol: After removing unbound biotinylated Aβ, the bound peptide was determined with steptavidin conjugated with horse radish peroxidase.

[14] = target: T6, Aβ-VEGF binding (VEGF, biotinylated Aβ1-42) (Homo sapiens, UniProt P15692); test: Aβ-VEGF binding in presence of triamterene; conditions: 100 nM VEGF, 100 nM biotinylated Aβ1-42, 37° C., 24 hours
T6 sequence (P15692 27-191 isoform P15692-4 limits assumed): T1 sequence (P15692 27-191 isoform P15692-4 limits assumed)
Protocol: The level of the formation of the Aβ-VEGF binding was measured and compared with that of control without triamterene.

[15] = target: VEGF receptor, KDR-Fc (Homo sapiens, UniProt P35968); conditions: VEGF 12 nM immobilized; 0.3 nM KDR-Fc
Protocol: After removing unbound KDR-Fc, the bound KDR-Fc was determined by binding of mouse anti-Fc antibody followed by anti-mouse antibody conjugated with horse radish peroxidase.

[16] = target: T7, Aβ-VEGF binding (Homo sapiens, UniProt P15692); test: Search for an inhibitor of Aβ-VEGF binding
T7 construct: Aβ (Aβ) is the major component of senile plaques and is derived from the amyloid precursor protein by proteolytic cleavage
T7 sequence (P15692 27-191 isoform P15692-4 limits assumed): T1 sequence (P15692 27-191 isoform P15692-4 limits assumed)

Sequence of VEGF receptor, KDR-Fc (P35968 with tags, fused parts or gaps limits assumed): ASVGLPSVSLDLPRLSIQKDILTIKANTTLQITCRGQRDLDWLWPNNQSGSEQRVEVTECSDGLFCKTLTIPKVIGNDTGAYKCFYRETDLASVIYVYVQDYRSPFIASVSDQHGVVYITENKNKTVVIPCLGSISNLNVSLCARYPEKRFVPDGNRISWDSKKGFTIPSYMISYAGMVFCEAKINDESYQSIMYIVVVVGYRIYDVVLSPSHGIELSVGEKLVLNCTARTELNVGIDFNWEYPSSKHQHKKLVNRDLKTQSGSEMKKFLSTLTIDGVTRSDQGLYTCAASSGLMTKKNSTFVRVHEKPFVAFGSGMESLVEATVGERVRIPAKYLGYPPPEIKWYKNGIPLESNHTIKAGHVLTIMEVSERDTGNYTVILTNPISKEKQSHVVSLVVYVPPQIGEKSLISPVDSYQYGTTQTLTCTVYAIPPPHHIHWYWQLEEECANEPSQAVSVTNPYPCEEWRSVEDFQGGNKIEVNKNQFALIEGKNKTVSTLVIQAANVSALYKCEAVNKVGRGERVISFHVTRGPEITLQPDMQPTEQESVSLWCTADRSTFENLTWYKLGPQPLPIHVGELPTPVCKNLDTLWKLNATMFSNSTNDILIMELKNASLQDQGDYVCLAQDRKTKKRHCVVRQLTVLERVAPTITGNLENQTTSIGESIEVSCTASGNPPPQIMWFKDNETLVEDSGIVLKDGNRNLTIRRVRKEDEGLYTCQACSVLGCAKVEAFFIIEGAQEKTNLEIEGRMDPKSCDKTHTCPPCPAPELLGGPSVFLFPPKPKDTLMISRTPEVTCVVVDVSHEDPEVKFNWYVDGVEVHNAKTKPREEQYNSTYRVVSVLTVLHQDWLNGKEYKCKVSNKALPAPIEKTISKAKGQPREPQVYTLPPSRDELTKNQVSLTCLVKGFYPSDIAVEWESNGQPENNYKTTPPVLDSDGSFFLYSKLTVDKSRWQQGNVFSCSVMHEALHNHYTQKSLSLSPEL

O=C(O[C@@H]1Cc2c(O)cc(O)cc2O[C@@H]1c1cc(O)c(O)c(O)c1)c1cc(O)c(O)c(O)c1 [EGCG, epigallocatechin gallate, reference compound]
inhibition of binding of Aβ to VEGF [1]: inhibition
activity to inhibit the aggregation of Aβ by itself [2]: additional activity to inhibit the aggregation of Aβ by itself

bFGF: basic fibroblast growth factor
binding of growth factor to Aβ [3]: only VEGF and midkine bound to A

Aβ1-42: β-amyloid peptide 1-42, SEQ ID NO:4
effect on the binding of VEGF with the receptors on endothelial cells [4]: Neither Aβ1-40 nor Aβ1-42, even at a high concentration (1 μM), affected
effect on the proliferation of endothelial cells induced by VEGF [5]: Neither Aβ1-40 nor Aβ1-42, even at a high concentration (1 μM), affected
effect on the binding of VEGF to MDA-MB-231 tumor cells [6]: Neither did Aβ1-40 nor Aβ1-42 affect

GST-CHBD: C-terminal half (amino acid 29-55) of heparin-binding domain fused to GST (CKNTDSRCKARQLELNERTCRCDKPRR; cysteine pairing not given here; also: fused to GST)
binding of Aβ to immobilized GST-fusion protein [7]: Aβ binds to C-terminal sub-domain of heparin-binding domain

HBD: full heparin-binding domain of VEGF165 (SEQ ID NO:2) fused to GST (ARQENPCGPCSERRKHLFVQDPQTCKCSCKNTDSRCKARQLELNERTCRCDKPRR; cysteine pairing not given here; also: fused to GST)
inhibition of the cytotoxicity of Aβ (MTT reduction) [8]: exhibits the activity to inhibit the cytotoxicity of Aβ
inhibition of the cytotoxicity of Aβ (ethidium homodimer-1 fluorescence) [9]: inhibit the cytotoxicity of Aβ depending on the concentration
inhibition of aggregation of Aβ (thioflavin T) ([10]; 50 μM Aβ1-42, 37° C., VEGF or GST-HBD at various concentrations): inhibit aggregation of Aβ depending on the concentration
generation of the reactive oxygen species, treatment alone ([11]; 5 μM VEGF165 or 5 μM GST-HBD alone): no effect on the generation of the reactive oxygen species
generation of the reactive oxygen species by Aβ, treatment together with Aβ ([11]; 5 μM VEGF165 or 5 μM GST-HBD with 5 μM Aβ1-42): inhibitory effect on the generation of the reactive oxygen species by Aβ

Aβ25-35: partial fragment of Aβ, residues 25-35 of SEQ ID NO:4 (GSNRGAIIGLM; listed as Homo sapiens)
competition with Aβ for binding to immobilized VEGF165 [12]: competes with Aβ for its binding to immobilized VEGF165

heparin
IC50, inhibition of binding of biotinylated Aβ1-42 to heparin-binding domain [13]: ~0.025 µg/mL

tannic acid
inhibition of binding of Aβ to VEGF [1]: inhibition

Nc1nc(N)c2nc(-c3ccccc3)c(N)nc2n1 [triamterene]
affection on aggregation of Aβ (thioflavin T) ([10]; 50 μM Aβ, 37° C., triamterene 0, 4, 20 or 100 μM): no affection on aggregation of Aβ regardless of the concentration
inhibition of the Aβ-VEGF binding [14]: concentration-dependently inhibits the binding between Aβ and VEGF
affection on the VEGF-VEGF receptor binding [15]: no affection on the VEGF-VEGF receptor binding regardless of the concentration

PDGF
binding of growth factor to Aβ [3]: only VEGF and midkine bound to A

NGF: nerve growth factor
binding of growth factor to Aβ [3]: only VEGF and midkine bound to A

Aβ1-40: β-amyloid peptide residues 1-40 (BACHEM)
effect on the binding of VEGF with the receptors on endothelial cells [4]: Neither Aβ1-40 nor Aβ1-42, even at a high concentration (1 μM), affected
effect on the proliferation of endothelial cells induced by VEGF [5]: Neither Aβ1-40 nor Aβ1-42, even at a high concentration (1 μM), affected
effect on the binding of VEGF to MDA-MB-231 tumor cells [6]: Neither did Aβ1-40 nor Aβ1-42 affect

fucoidan
activity to inhibit the aggregation of Aβ by itself [2]: additional activity to inhibit the aggregation of Aβ by itself
inhibitor of Aβ-VEGF binding (search) [16]: searched as an inhibitor of Aβ-VEGF binding

B1: midkine: heparin-binding, neurotrophic growth factor whose expression occurs mainly in fetus (protein)
chain: VAKKKDKVKKGGPGSECAEWAWGPCTPSSKDCGVGFREGTCGAQTQRIRCRVPCNWKKEFGADCKYKFENWGACDGGTGTKVRQGTLKKARYNAQCQETIRVTKPCTPKTKAKAKAKKGKGKD
binding of growth factor to Aβ [3]: bound to A

Reference: patent publication US7795213B2 (POSCO, priority 2002, dated 2010)
